According to patent publication US20260241048A1, “PSMA-TARGETED RADIOPHARMACEUTICALS AND DNA DAMAGE RESPONSE INHIBITOR COMBINATION THERAPY” (FUSION PHARMACEUTICALS INC., priority 2023, published 2026):

Experiments:
PC3-PSMA xenograft [1] = assay: In vivo combination study of ^225Ac-Compound I and olaparib in PC3-PSMA tumor xenograft bearing mouse model
Protocol: An in vivo combination study was conducted with ^225Ac-Compound I and olaparib using a PSMA overexpressing PC3 (PC3-PSMA, prostate cancer) tumor xenograft bearing mouse model. Groups of mice (n=5/group) were treated with ^225Ac-Compound I administered as a single dose (intravenous), at a dose sub-optimal for monotherapeutic efficacy (1.23 MBq/kg or 1 μCi, based on 30 g mice). Additional groups of mice (n=5/group) were dosed daily with olaparib (oral gavage) using a dose range of 25, 50, or 100 mg/kg for 28 consecutive days in combination with ^225Ac-Compound I. Olaparib dosing started on the same day that ^225Ac-Compound I was dosed (FIG. 1). Olaparib monotherapy and vehicle control groups (n=5/group) were included as controls. Tumor measurements were taken 2-3 times per week and used to calculate tumor volume. Study duration was for 50 days after initial therapeutic administration.
Tumor growth in study animals was tracked over time and expressed as Relative Tumor Volume (RTV; tumor volume on day X divided by initial tumor volume on day 0) (FIGS. 2A-2C). Single agent olaparib monotherapy was found ineffective at all dose levels tested.

PC3-PSMA xenograft [2] = assay: In vivo combination study of ^225Ac-Compound I and elimusertib in PC3-PSMA tumor xenograft bearing mouse model; settings: 1.23 MBq/kg [^225Ac]-Compound I single i.v. dose combined with elimusertib 5, 20 and 40 mg/kg; compared to either monotherapy or vehicle
Protocol: Groups of mice (n=5/group) were treated with ^225Ac-Compound I, administered as a single dose (intravenous), at a dose sub-optimal for monotherapeutic efficacy (1.23 MBq/kg or 1 μCi, based on 30 g mice). […] Tumor measurements were taken 2-3 times per week and used to calculate tumor volume. Study duration was 61 days after initial therapeutic administration.
Tumor growth was tracked over time and expressed as Relative Tumor Volume (RTV; tumor volume on day X divided by initial tumor volume on day 0) (FIGS. 4A-4C).

Row | Structure (SMILES) | Tumor growth inhibition (Relative Tumor Volume) (PC3-PSMA xenograft [1]; 1.23 MBq/kg [^225Ac]-Compound I single i.v. dose combined with olaparib 25, 50 or 100 mg/kg daily, compared to either monotherapy or vehicle) | Tumor growth inhibition (Relative Tumor Volume) (PC3-PSMA xenograft [2]) | Tumor growth (Relative Tumor Volume) (PC3-PSMA xenograft [1]; single agent olaparib monotherapy, oral gavage daily for 28 days, all dose levels tested (25, 50, 100 mg/kg))
1 | O=C(O)CC[C@H](NC(=O)N[C@@H](CCCCNC(=O)CCCCCCC(=O)NCCCC[C@@H](NC(=O)[C@@H](Cc1ccccc1)NC(=O)[C@@H](Cc1ccc(O)c(I)c1)NC(=O)CCC(C(=O)O)N1CCN(CC(=O)O)CCN(CC(=O)O)CCN(CC(=O)O)CC1)C(=O)O)C(=O)O)C(=O)O (stereo partly drawn) [[^225Ac]-Compound I, metal not drawn] | enhanced tumor growth inhibition | enhanced tumor growth inhibition | –
2 | O=C(c1cc(Cc2n[nH]c(=O)c3ccccc23)ccc1F)N1CCN(C(=O)C2CC2)CC1 [olaparib, reference compound] | – | – | ineffective
